Source: patent US10758534B2 (Vertex Pharmaceuticals Incorporated, priority 2014, dated 2020)

Molecular target: T1, F508del (Homo sapiens, UniProt P13569, DEL508-508)
T1 construct: expressed in transfected cells
Assay: Protocol 2: FRET membrane potential optical assay (VIPR), identification of correction compounds
Assay type: cell-based
Settings: F508del CFTR modulator activity; compounds of Table 1; read-out: EC30
In short: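 NIH3T3 mouse fibroblasts stably expressing F508del-CFTR incubated with compound 16 h at 37 °C in serum-free medium, then loaded with CC2-DMPE/DiSBAC2(3) FRET dyes. Channel activated with 10 μM forskolin plus 20 μM genistein in Cl⁻-free (gluconate) bath; depolarisation from Cl⁻ efflux read on VIPR II.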

T1 sequence (P13569 with tags, fused parts or gaps DEL508-508): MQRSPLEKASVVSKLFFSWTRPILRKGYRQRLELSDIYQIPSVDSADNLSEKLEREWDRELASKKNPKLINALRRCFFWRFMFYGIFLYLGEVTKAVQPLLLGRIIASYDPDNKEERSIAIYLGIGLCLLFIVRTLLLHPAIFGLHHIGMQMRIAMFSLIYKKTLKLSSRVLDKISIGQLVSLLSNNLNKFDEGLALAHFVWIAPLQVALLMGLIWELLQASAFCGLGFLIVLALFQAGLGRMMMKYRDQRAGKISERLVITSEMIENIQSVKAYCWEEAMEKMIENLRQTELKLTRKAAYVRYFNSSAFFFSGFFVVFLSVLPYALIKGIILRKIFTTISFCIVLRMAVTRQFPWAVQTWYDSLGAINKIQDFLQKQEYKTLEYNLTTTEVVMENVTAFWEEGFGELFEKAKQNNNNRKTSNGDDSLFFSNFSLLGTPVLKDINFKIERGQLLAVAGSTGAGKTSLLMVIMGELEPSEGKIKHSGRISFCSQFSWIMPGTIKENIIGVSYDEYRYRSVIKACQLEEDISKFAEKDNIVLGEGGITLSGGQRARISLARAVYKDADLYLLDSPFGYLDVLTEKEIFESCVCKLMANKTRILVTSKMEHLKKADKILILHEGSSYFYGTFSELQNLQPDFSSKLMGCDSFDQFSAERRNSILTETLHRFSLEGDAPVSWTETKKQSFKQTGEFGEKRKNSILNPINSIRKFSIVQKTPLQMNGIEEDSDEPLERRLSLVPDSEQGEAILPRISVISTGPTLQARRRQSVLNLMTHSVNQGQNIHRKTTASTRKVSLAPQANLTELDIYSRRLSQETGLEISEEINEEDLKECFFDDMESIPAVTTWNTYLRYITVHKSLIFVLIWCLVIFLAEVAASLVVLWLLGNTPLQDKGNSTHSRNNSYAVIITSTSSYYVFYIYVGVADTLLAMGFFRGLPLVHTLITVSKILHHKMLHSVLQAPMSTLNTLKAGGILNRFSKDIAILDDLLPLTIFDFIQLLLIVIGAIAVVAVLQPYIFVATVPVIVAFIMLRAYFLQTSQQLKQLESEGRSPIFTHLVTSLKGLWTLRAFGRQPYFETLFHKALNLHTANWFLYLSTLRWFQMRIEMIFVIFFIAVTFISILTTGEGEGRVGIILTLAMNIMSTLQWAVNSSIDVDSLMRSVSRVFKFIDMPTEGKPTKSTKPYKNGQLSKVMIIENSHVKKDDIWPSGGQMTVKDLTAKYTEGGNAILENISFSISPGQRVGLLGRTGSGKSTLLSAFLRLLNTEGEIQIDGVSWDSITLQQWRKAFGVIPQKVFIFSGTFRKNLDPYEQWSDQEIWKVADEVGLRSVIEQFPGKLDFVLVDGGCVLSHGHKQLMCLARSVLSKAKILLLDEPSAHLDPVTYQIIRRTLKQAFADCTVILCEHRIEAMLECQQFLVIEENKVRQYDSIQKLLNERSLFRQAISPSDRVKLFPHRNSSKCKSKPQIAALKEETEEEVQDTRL

Row | Compound | EC30 [nM]
1 | Cc1ccc2nc(N3C[C@@H](C)CC3(C)C)c(C(=O)NS(=O)(=O)c3ccc[nH]c3=O)cc2c1 [Compound 2471, 6-methyl-N-[(2-oxo-1H-pyridin-3-yl)sulfonyl]-2-[(4S)-2,2,4-trimethylpyrrolidin-1-yl]quinoline-3-carboxamide] | 3000 to 10000
2 | Cc1cc(-c2ccc(C(=O)NS(=O)(=O)N3CC[C@H](N)C3)c(N3C[C@@H](C)CC3(C)C)n2)ccc1F [Compound 2472, N-[(3S)-3-aminopyrrolidin-1-yl]sulfonyl-6-(4-fluoro-3-methyl-phenyl)-2-[(4S)-2,2,4-trimethylpyrrolidin-1-yl]pyridine-3-carboxamide] | 3000 to 10000
3 | CC(C)COc1cc(F)cc(-c2nc(N3C[C@@H](C)CC3(C)C)c(C(=O)NS(=O)(=O)c3cccc(N)n3)cc2F)c1 [Compound 2473, N-[(6-amino-2-pyridyl)sulfonyl]-5-fluoro-6-(3-fluoro-5-isobutoxy-phenyl)-2-[(4S)-2,2,4-trimethylpyrrolidin-1-yl]pyridine-3-carboxamide] | < 3000
4 | C[C@@H]1CN(c2nc(C(C)(C)C)c(C(O)C(O)C3CCCCC3)cc2C(=O)NS(=O)(=O)c2cccc(N)n2)C(C)(C)C1 (stereo partly drawn) [Compound 2475] | < 3000
5 | CC(C)COc1cc(F)cc(-c2ccc(C(=O)NS(=O)(=O)c3cccc(N)n3)c(N3CCC(C)CC(C)C3)n2)c1 (stereo not drawn) [Compound 2479, N-[(6-amino-2-pyridyl)sulfonyl]-2-(3,5-dimethylazepan-1-yl)-6-(3-fluoro-5-isobutoxy-phenyl)pyridine-3-carboxamide] | < 3000
6 | C[C@@H]1CN(c2nc(-c3ccccc3O)ccc2C(=O)NS(=O)(=O)c2ccc[nH]c2=O)C(C)(C)C1 [Compound 2480, 6-(2-hydroxyphenyl)-N-[(2-oxo-1H-pyridin-3-yl)sulfonyl]-2-[(4S)-2,2,4-trimethylpyrrolidin-1-yl]pyridine-3-carboxamide] | 3000 to 10000
7 | COc1cc(F)ccc1-c1ccc(C(=O)NS(=O)(=O)c2cccnc2N)c(N2C[C@@H](C)CC2(C)C)n1 [Compound 2482, N-[(2-amino-3-pyridyl)sulfonyl]-6-(4-fluoro-2-methoxy-phenyl)-2-[(4S)-2,2,4-trimethylpyrrolidin-1-yl]pyridine-3-carboxamide] | < 3000
8 | CC(C)c1ccc(-c2ccc(C(=O)NS(=O)(=O)c3ccc[nH]c3=O)c(N3C[C@@H](C)CC3(C)C)n2)cc1 [Compound 2483, 6-(4-isopropylphenyl)-N-[(2-oxo-1H-pyridin-3-yl)sulfonyl]-2-[(4S)-2,2,4-trimethylpyrrolidin-1-yl]pyridine-3-carboxamide] | < 3000
9 | COc1ccccc1-c1ccc(C(=O)NS(=O)(=O)c2ccc[nH]c2=O)c(N2C[C@@H](C)CC2(C)C)n1 [Compound 2485, 6-(2-methoxyphenyl)-N-[(2-oxo-1H-pyridin-3-yl)sulfonyl]-2-[(4S)-2,2,4-trimethylpyrrolidin-1-yl]pyridine-3-carboxamide] | < 3000
10 | CCOc1cc(C)cc(-c2ccc(C(=O)NS(=O)(=O)c3cc[nH]n3)c(N3C[C@@H](C)CC3(C)C)n2)n1 [Compound 2487, 6-(6-ethoxy-4-methyl-2-pyridyl)-N-(1H-pyrazol-3-ylsulfonyl)-2-[(4S)-2,2,4-trimethylpyrrolidin-1-yl]pyridine-3-carboxamide] | < 3000
11 | C[C@@H]1CN(c2nc(-c3cc(F)ccc3F)ccc2C(=O)NS(=O)(=O)N2CC[C@H](N)C2)C(C)(C)C1 [Compound 2489, N-[(3S)-3-aminopyrrolidin-1-yl]sulfonyl-6-(2,5-difluorophenyl)-2-[(4S)-2,2,4-trimethylpyrrolidin-1-yl]pyridine-3-carboxamide] | 3000 to 10000
12 | Cc1ccc(F)cc1-c1ccc(C(=O)NS(=O)(=O)N2CC[C@H](N)C2)c(N2C[C@@H](C)CC2(C)C)n1 [Compound 2490, N-[(3S)-3-aminopyrrolidin-1-yl]sulfonyl-6-(5-fluoro-2-methyl-phenyl)-2-[(4S)-2,2,4-trimethylpyrrolidin-1-yl]pyridine-3-carboxamide] | < 3000
13 | Cc1c(F)cccc1-c1ccc(C(=O)NS(=O)(=O)c2ccc[nH]c2=O)c(N2C[C@@H](C)CC2(C)C)n1 [Compound 2491, 6-(3-fluoro-2-methyl-phenyl)-N-[(2-oxo-1H-pyridin-3-yl)sulfonyl]-2-[(4S)-2,2,4-trimethylpyrrolidin-1-yl]pyridine-3-carboxamide] | < 3000
14 | COc1ccc(-c2ccc(C(=O)NS(=O)(=O)c3cccnc3N)c(N3C[C@@H](C)CC3(C)C)n2)c(C)c1 [Compound 2494, N-[(2-amino-3-pyridyl)sulfonyl]-6-(4-methoxy-2-methyl-phenyl)-2-[(4S)-2,2,4-trimethylpyrrolidin-1-yl]pyridine-3-carboxamide] | < 3000
15 | COc1c(F)cc(F)cc1-c1ccc(C(=O)NS(=O)(=O)c2ccc[nH]c2=O)c(N2C[C@@H](C)CC2(C)C)n1 [Compound 2496, 6-(3,5-difluoro-2-methoxy-phenyl)-N-[(2-oxo-1H-pyridin-3-yl)sulfonyl]-2-[(4S)-2,2,4-trimethylpyrrolidin-1-yl]pyridine-3-carboxamide] | < 3000
16 | CCOCCOc1ncc(-c2ccc(C(=O)NS(=O)(=O)c3cccnc3N)c(N3C[C@@H](C)CC3(C)C)n2)cc1C [Compound 2497, N-[(2-amino-3-pyridyl)sulfonyl]-6-[6-(2-ethoxyethoxy)-5-methyl-3-pyridyl]-2-[(4S)-2,2,4-trimethylpyrrolidin-1-yl]pyridine-3-carboxamide] | < 3000
17 | CC(C)c1cccc(-c2ccc(C(=O)NS(=O)(=O)c3ccc[nH]c3=O)c(N3C[C@@H](C)CC3(C)C)n2)c1 [Compound 2498, 6-(3-isopropylphenyl)-N-[(2-oxo-1H-pyridin-3-yl)sulfonyl]-2-[(4S)-2,2,4-trimethylpyrrolidin-1-yl]pyridine-3-carboxamide] | < 3000
18 | COc1cc(C)cc(-c2cnc(N3CC(C)CC3(C)C)c(C(=O)NS(=O)(=O)c3cccc(N)n3)c2)c1 (stereo not drawn) [Compound 2499, N-[(6-amino-2-pyridyl)sulfonyl]-5-(3-methoxy-5-methyl-phenyl)-2-(2,2,4-trimethylpyrrolidin-1-yl)pyridine-3-carboxamide] | < 3000
19 | CC(Oc1ncccc1C(=O)NS(=O)(=O)c1cccc(N)n1)c1ccccc1C(F)(F)F (stereo not drawn) [Compound 2501] | 3000 to 10000

Results, then the compound that gave them:

Row | EC30 [nM] | Compound
20 | < 3000 | COc1ccc(F)c(-c2ccc(C(=O)NS(=O)(=O)c3cccnc3N)c(N3C[C@@H](C)CC3(C)C)n2)c1 [Compound 2474, N-[(2-amino-3-pyridyl)sulfonyl]-6-(2-fluoro-5-methoxy-phenyl)-2-[(4S)-2,2,4-trimethylpyrrolidin-1-yl]pyridine-3-carboxamide]
21 | < 3000 | CC1CN(c2ncccc2C(=O)NS(=O)(=O)c2cccc(OCc3ccc(C(F)(F)F)nc3)n2)C(C)(C)C1 (stereo not drawn) [Compound 2476, N—[[6-[[6-(trifluoromethyl)-3-pyridyl]methoxy]-2-pyridyl]sulfonyl]-2-(2,2,4-trimethylpyrrolidin-1-yl)pyridine-3-carboxamide]
22 | < 3000 | C[C@@H]1CN(c2nc(-c3cccc4[nH]ccc34)ccc2C(=O)NS(=O)(=O)c2cccnc2N)C(C)(C)C1 [Compound 2478, N-[(2-amino-3-pyridyl)sulfonyl]-6-(1H-indol-4-yl)-2-[(4S)-2,2,4-trimethylpyrrolidin-1-yl]pyridine-3-carboxamide]
23 | < 3000 | CC1CN(c2ncccc2C(=O)NS(=O)(=O)c2cccc(Nc3cccc(C#N)c3)n2)C(C)(C)C1 (stereo not drawn) [Compound 2484, N—[[6-(3-cyanoanilino)-2-pyridyl]sulfonyl]-2-(2,2,4-trimethylpyrrolidin-1-yl)pyridine-3-carboxamide]
24 | < 3000 | CC1CN(c2ncccc2C(=O)NS(=O)(=O)c2cccc(Oc3ccccc3C(C)C)n2)C(C)(C)C1 (stereo not drawn) [Compound 2486, N—[[6-(2-isopropylphenoxy)-2-pyridyl]sulfonyl]-2-(2,2,4-trimethylpyrrolidin-1-yl)pyridine-3-carboxamide]
25 | < 3000 | CCOC(=O)C1CCN(c2cccc(S(=O)(=O)NC(=O)c3cccnc3N3CC(C)CC3(C)C)n2)CC1 (stereo not drawn) [Compound 2488, ethyl 1-[6-[[2-(2,2,4-trimethylpyrrolidin-1-yl)pyridine-3-carbonyl]sulfamoyl]-2-pyridyl]piperidine-4-carboxylate]
26 | < 3000 | COC(=O)c1cccc(Nc2cccc(S(=O)(=O)NC(=O)c3cccnc3N3CC(C)CC3(C)C)n2)c1 (stereo not drawn) [Compound 2493, methyl 3-[[6-[[2-(2,2,4-trimethylpyrrolidin-1-yl)pyridine-3-carbonyl]sulfamoyl]-2-pyridyl]amino]benzoate]
27 | < 3000 | CC1CN(c2ncccc2C(=O)NS(=O)(=O)c2cccc(NCCC(=O)OC(C)(C)C)n2)C(C)(C)C1 (stereo not drawn) [Compound 2495, tert-butyl 3-[[6-[[2-(2,2,4-trimethylpyrrolidin-1-yl)pyridine-3-carbonyl]sulfamoyl]-2-pyridyl]amino]propanoate]
28 | < 3000 | C[C@@H]1CN(c2nc(-c3cccc(NCC(C)(C)C)n3)ccc2C(=O)NS(=O)(=O)c2cccnc2N)C(C)(C)C1 [Compound 2500, N-[(2-amino-3-pyridyl)sulfonyl]-6-[6-(2,2-dimethylpropylamino)-2-pyridyl]-2-[(4S)-2,2,4-trimethylpyrrolidin-1-yl]pyridine-3-carboxamide]
29 | < 3000 | Cc1ccc(CCNc2cccc(S(=O)(=O)NC(=O)c3cccnc3N3CC(C)CC3(C)C)n2)cc1 (stereo not drawn) [Compound 2502, N—[[6-[2-(p-tolyl)ethylamino]-2-pyridyl]sulfonyl]-2-(2,2,4-trimethylpyrrolidin-1-yl)pyridine-3-carboxamide]
30 | < 3000 | COc1ccc(Cl)cc1Oc1cccc(S(=O)(=O)NC(=O)c2cccnc2N2CC(C)CC2(C)C)n1 (stereo not drawn) [Compound 2503, N—[[6-(5-chloro-2-methoxy-phenoxy)-2-pyridyl]sulfonyl]-2-(2,2,4-trimethylpyrrolidin-1-yl)pyridine-3-carboxamide]
